Data as given in the supplement of paper PMC4862054.
One block for each compound: values may come before it.

Experiments:
Conditions in all cases: 72 h
HCC1143 [1] = test system: HCC1143
Method in brief: (§1)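 Two sequential readouts followed a 72 h incubation of breast cancer cell lines with compound at 5 concentrations in 10-fold steps over a compound-specific 10,000-fold range: CellTox Green fluorescence (485/520 nm) for cell death, then CellTiter-Glo luminescence, after 10 min at room temperature, for viability. Each plate was normalised to 0.1 % DMSO and a positive kill control. Dose-response curves were fitted for EC50, censored at the top concentration.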

MDA-MB-436 [2] = test system: MDA-MB-436
Method in brief: as §1

CAL-120 [3] = test system: CAL-120
Method in brief: as §1

BT-474 [4] = test system: BT-474
Method in brief: as §1

BT-549 [5] = test system: BT-549
Method in brief: as §1

MDA-MB-231 [6] = test system: MDA-MB-231
Method in brief: as §1

MCF-10A [7] = test system: MCF-10A
Method in brief: as §1

HCC1937 [8] = test system: HCC1937
Method in brief: as §1

CAL-51 = test system: CAL-51
Method in brief: as §1

HDQ-P1 [9] = test system: HDQ-P1
Method in brief: as §1

MFM-223 [10] = test system: MFM-223
Method in brief: as §1

MDA-MB-453 [11] = test system: MDA-MB-453
Method in brief: as §1

MDA-MB-436 [12] = test system: MDA-MB-436; remark: listed apart in the source
Procedure: (§2)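 Drug sensitivity and resistance testing (DSRT) of breast cancer cell lines in 384-well plates, 5 concentrations in 10-fold dilutions over a compound-specific 10,000-fold range. After 72 h, cytotoxicity was read by CellTox Green fluorescence and viability by CellTiter-Glo luminescence (multiplexed), normalised to DMSO and benzethonium chloride controls. EC50 is the inflection point of the fitted dose-response curve (bottom asymptote free, so it can be relative for partial curves) and is censored at the highest tested concentration. Rows with DSS 0 (no meaningful response) were excluded.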

BT-474 [13] = test system: BT-474; remark: listed apart in the source
Procedure: as §2

BT-549 [14] = test system: BT-549; remark: listed apart in the source
Procedure: as §2

MCF-10A [15] = test system: MCF-10A; remark: listed apart in the source
Procedure: as §2

HCC1937 [16] = test system: HCC1937; remark: listed apart in the source
Procedure: as §2

MDA-MB-468 [17] = test system: MDA-MB-468
Procedure: as §2

SK-BR-3 [18] = test system: SK-BR-3
Method in brief: as §1

CAL-85-1 [19] = test system: CAL-85-1
Method in brief: as §1

HCC1599 [20] = test system: HCC1599
Method in brief: as §1

CAL-148 [21] = test system: CAL-148
Method in brief: as §1

DU-4475 [22] = test system: DU-4475
Method in brief: as §1

Hs578T [23] = test system: Hs578T
Method in brief: as §1

CAL-148 [24] = test system: CAL-148; remark: listed apart in the source
Method in brief: (§3)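 Compound dissolved in 5 µl medium was placed in 384-well plates before 20 µl of breast cancer cell suspension was added, and the plates were incubated for 72 h. Cells then received 2.5 µl CellTiter-Blue for 2 h at 37 °C, and fluorescence was read at 560/590 nm. EC50 values come from percent-inhibition dose-response fits that were censored at the highest concentration, with plates normalised to vehicle and a positive kill control and rows with a zero drug sensitivity score excluded.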

HCC1143 [25] = test system: HCC1143; remark: listed apart in the source
Procedure: as §2

CAL-120 [26] = test system: CAL-120; remark: listed apart in the source
Procedure: as §2

CAL-85-1 [27] = test system: CAL-85-1; remark: listed apart in the source
Procedure: as §2

HCC1599 [28] = test system: HCC1599; remark: listed apart in the source
Procedure: as §2

CAL-148 [29] = test system: CAL-148; remark: listed apart in the source
Procedure: as §2

HDQ-P1 [30] = test system: HDQ-P1; remark: listed apart in the source
Procedure: as §2

DU-4475 [31] = test system: DU-4475; remark: listed apart in the source
Procedure: as §2

MFM-223 [32] = test system: MFM-223; remark: listed apart in the source
Procedure: as §2

Hs578T [33] = test system: Hs578T; remark: listed apart in the source
Procedure: as §2

MDA-MB-453 [34] = test system: MDA-MB-453; remark: listed apart in the source
Procedure: as §2

SK-BR-3 [35] = test system: SK-BR-3; remark: listed apart in the source
Method in brief: as §3

HCC1143 [36] = test system: HCC1143; remark: listed apart in the source
Method in brief: as §3

MDA-MB-436 [37] = test system: MDA-MB-436; remark: listed apart in the source
Method in brief: as §3

CAL-120 [38] = test system: CAL-120; remark: listed apart in the source
Method in brief: as §3

BT-474 [39] = test system: BT-474; remark: listed apart in the source
Method in brief: as §3

BT-549 [40] = test system: BT-549; remark: listed apart in the source
Method in brief: as §3

MDA-MB-231 [41] = test system: MDA-MB-231; remark: listed apart in the source
Method in brief: as §3

HCC1937 [42] = test system: HCC1937; remark: listed apart in the source
Method in brief: as §3

HCC1599 [43] = test system: HCC1599; remark: listed apart in the source
Method in brief: as §3

MDA-MB-468 [44] = test system: MDA-MB-468; remark: listed apart in the source
Method in brief: as §3

MFM-223 [45] = test system: MFM-223; remark: listed apart in the source
Method in brief: as §3

Hs578T [46] = test system: Hs578T; remark: listed apart in the source
Method in brief: as §3

EC50, CellTiter-Glo (HCC1143 [1]): 4.78 µM | EC50, CellTiter-Glo (MDA-MB-436 [2]): 5.34 µM | EC50, CellTiter-Glo (BT-474 [4]): 3.55 µM | EC50, CellTiter-Glo (BT-549 [5]): 1.91 µM | EC50, CellTiter-Glo (MDA-MB-231 [6]): 2.58 µM | EC50, CellTiter-Glo (HCC1937 [8]): 4.83 µM | EC50, CellTiter-Glo (MDA-MB-453 [11]): 3.11 µM
SMILES: COC(=O)c1ccc2c(c1)NC(=O)/C2=C(\Nc1ccc(N(C)C(=O)CN2CCN(C)CC2)cc1)c1ccccc1 [Nintedanib]
EC50, CellTiter-Glo (CAL-120 [3]): 2.38 µM | EC50, CellTiter-Glo (MCF-10A [7]): 0.584 µM | EC50, CellTiter-Glo (CAL-51): 1.88 µM | EC50, CellTiter-Glo (HDQ-P1 [9]): 1.08 µM | EC50, CellTiter-Glo (MFM-223 [10]): 0.408 µM | EC50, CellTox Green (MDA-MB-436 [12]): 8.83 µM | EC50, CellTox Green (BT-474 [13]): 2.54 µM | EC50, CellTox Green (BT-549 [14]): 6.88 µM | EC50, CellTox Green (MCF-10A [15]): 7.35 µM | EC50, CellTox Green (HCC1937 [16]): 1.65 µM | EC50, CellTox Green (MDA-MB-468 [17]): 5.88 µM

EC50, CellTiter-Glo (SK-BR-3 [18]): 0.0137 µM | EC50, CellTiter-Glo (HCC1143 [1]): 0.0335 µM | EC50, CellTiter-Glo (MDA-MB-436 [2]): 0.0582 µM | EC50, CellTiter-Glo (BT-474 [4]): 0.0318 µM | EC50, CellTiter-Glo (BT-549 [5]): 0.0813 µM | EC50, CellTiter-Glo (MDA-MB-231 [6]): 0.0243 µM | EC50, CellTiter-Glo (HCC1937 [8]): 0.168 µM | EC50, CellTiter-Glo (HCC1599 [20]): 0.0464 µM | EC50, CellTiter-Glo (MDA-MB-453 [11]): 0.00995 µM | EC50, CellTiter-Blue viability (SK-BR-3 [35]): 0.0102 µM | EC50, CellTiter-Blue viability (HCC1143 [36]): 0.0274 µM | EC50, CellTiter-Blue viability (MDA-MB-436 [37]): 0.107 µM | EC50, CellTiter-Blue viability (BT-474 [39]): 0.0286 µM | EC50, CellTiter-Blue viability (BT-549 [40]): 0.125 µM | EC50, CellTiter-Blue viability (MDA-MB-231 [41]): 0.0326 µM | EC50, CellTiter-Blue viability (HCC1937 [42]): 0.0146 µM | EC50, CellTiter-Blue viability (HCC1599 [43]): 0.0241 µM | EC50, CellTiter-Blue viability (MDA-MB-468 [44]): 0.0883 µM
SMILES: Cc1[nH]c2ccccc2c1CCNCc1ccc(/C=C/C(=O)NO)cc1 [Panobinostat]
EC50, CellTiter-Glo (CAL-120 [3]): 0.0623 µM | EC50, CellTiter-Glo (MCF-10A [7]): 0.0891 µM | EC50, CellTiter-Glo (CAL-51): 0.0226 µM | EC50, CellTiter-Glo (CAL-85-1 [19]): 0.0334 µM | EC50, CellTiter-Glo (CAL-148 [21]): 0.021 µM | EC50, CellTiter-Glo (HDQ-P1 [9]): 0.115 µM | EC50, CellTiter-Glo (DU-4475 [22]): 0.0183 µM | EC50, CellTiter-Glo (MFM-223 [10]): 0.0276 µM | EC50, CellTiter-Glo (Hs578T [23]): 0.0432 µM | EC50, CellTiter-Blue viability (CAL-148 [24]): 0.0129 µM | EC50, CellTox Green (HCC1143 [25]): 0.0717 µM | EC50, CellTox Green (CAL-120 [26]): 0.0684 µM | EC50, CellTox Green (BT-474 [13]): 0.0278 µM | EC50, CellTox Green (MCF-10A [15]): 0.579 µM | EC50, CellTox Green (HCC1937 [16]): 0.071 µM | EC50, CellTox Green (CAL-85-1 [27]): 0.0332 µM | EC50, CellTox Green (HCC1599 [28]): 0.112 µM | EC50, CellTox Green (CAL-148 [29]): 0.0186 µM | EC50, CellTox Green (HDQ-P1 [30]): 0.193 µM | EC50, CellTox Green (DU-4475 [31]): 0.0203 µM | EC50, CellTox Green (MDA-MB-468 [17]): 0.133 µM | EC50, CellTox Green (MFM-223 [32]): 0.182 µM | EC50, CellTox Green (Hs578T [33]): 0.0286 µM | EC50, CellTox Green (MDA-MB-453 [34]): 0.043 µM | EC50, CellTiter-Blue viability (CAL-120 [38]): 0.0111 µM | EC50, CellTiter-Blue viability (MFM-223 [45]): 0.0399 µM | EC50, CellTiter-Blue viability (Hs578T [46]): 0.0262 µM

EC50, CellTiter-Glo (SK-BR-3 [18]): > 10 µM | EC50, CellTiter-Glo (MDA-MB-436 [2]): 6.38 µM | EC50, CellTiter-Glo (BT-474 [4]): 3.5 µM | EC50, CellTiter-Glo (BT-549 [5]): 9.05 µM | EC50, CellTiter-Glo (MDA-MB-231 [6]): 4.56 µM | EC50, CellTiter-Glo (HCC1937 [8]): > 10 µM | EC50, CellTiter-Glo (HCC1599 [20]): 8.02 µM | EC50, CellTiter-Glo (MDA-MB-453 [11]): 2.89 µM | EC50, CellTiter-Blue viability (HCC1143 [36]): 0.00384 µM | EC50, CellTiter-Blue viability (BT-474 [39]): 8.34 µM | EC50, CellTiter-Blue viability (BT-549 [40]): 7.21 µM | EC50, CellTiter-Blue viability (MDA-MB-231 [41]): 2.37 µM | EC50, CellTiter-Blue viability (HCC1937 [42]): 5.96 µM | EC50, CellTiter-Blue viability (HCC1599 [43]): 7.36 µM | EC50, CellTiter-Blue viability (MDA-MB-468 [44]): 7.8 µM
SMILES: CNC(=O)c1cc(Oc2ccc(NC(=O)Nc3ccc(Cl)c(C(F)(F)F)c3)c(F)c2)ccn1 [Regorafenib]
EC50, CellTiter-Glo (CAL-120 [3]): 9.95 µM | EC50, CellTiter-Glo (MCF-10A [7]): 1.88 µM | EC50, CellTiter-Glo (CAL-51): 0.216 µM | EC50, CellTiter-Glo (CAL-148 [21]): 4.59 µM | EC50, CellTiter-Glo (HDQ-P1 [9]): 5.11 µM | EC50, CellTiter-Glo (DU-4475 [22]): 2.97 µM | EC50, CellTiter-Glo (MFM-223 [10]): 1.15 µM | EC50, CellTiter-Glo (Hs578T [23]): 2.29 µM | EC50, CellTox Green (HCC1937 [16]): 4.88 µM | EC50, CellTiter-Blue viability (CAL-120 [38]): 9.38 µM | EC50, CellTiter-Blue viability (MFM-223 [45]): 0.706 µM | EC50, CellTiter-Blue viability (Hs578T [46]): 6.69 µM
